# Test results taken from patent publication US10118954B2, “Apelin analogues” (University of Ulster, priority 2014, dated 2018).
# System: high fat fed NIH Swiss mice
# Test: 28 day long-term study of fatty acid apelin analogues, once daily i.p. administration
# Type: in vivo
# From the text: NIH Swiss mice (Harlan UK Ltd., Blackthorne, UK) were derived from a nucleus colony obtained from the National Institute of Health, Bethesda, Md., USA. One group of mice were maintained on a standard rodent diet (10% fat, 30% protein, 60% carbohydrate; percent of total energy 12.99 kJ/g, Trouw Nutrition, Cheshire, UK) and used as a model of normal glycaemia. Other NIH Swiss mice were maintained on a high fat diet (45% fat, 20% protein, 35% carbohydrate; percent of total energy 26.15 kJ/g; Dietex, Essex, UK) from 8 weeks of age for 150 days to produce a model of diet induced obesity-diabetes. […] All mice were housed in an air-conditioned room maintained at 22±2° C. with a 12 h light: 12 h dark cycle (08:00-20:00 h), were singly caged, and selected for experimental groups according to body weight and non-fasted blood glucose. Drinking water and diet were freely available. All animal studies were performed in accordance with the UK Animals (Scientific Procedures) Act 1986.
# For another 28 day long-term study of selected fatty acid apelin analogues administered once daily, normal control NIH Swiss (n=8) and high-fat fed NIH Swiss (n=8) were grouped and received once daily i.p. injections of saline vehicle (0.9% NaCl (w/v)) at 17:00 h over a 4 day run-in period. Following the run-in period, normal control (n=8) and high-fat fed mice (n=8) received once daily (17:00 h) i.p. administration of saline vehicle (0.9% NaCl (w/v)) for 28 days. Additional groups of high-fat fed mice (n=8) received once daily i.p. injections of (Lys^8gluPal)apelin-13-amide, pGlu(Lys^8gluPal)apelin-13-amide or liraglutide (each at 25 nmol/kg bw) over a 28 day treatment period.
# Food intake, body weight, blood glucose and plasma insulin were monitored at intervals of 2-3 days throughout the run-in and 28 day treatment period. Blood samples for glucose and plasma insulin measurement were collected at intervals throughout the study from the cut tail vein of conscious mice. Following the 28 day treatment period, oral, i.p. and meal test glucose tolerance ([…].), and insulin sensitivity (25 U/kg bw) tests were performed. Glucose was measured using an Ascensia Contour meter and blood was collected and processed for plasma insulin analysis by radioimmunoassay. Body weight and fat mass was also assessed using the PIXImus DEXA scanner whilst energy expenditure, intake, food intake and feeding bouts were assessed using the CLAMS metabolic chamber. HbA1c was analysed post 28 days using Bayer A1C Now^+ Multi Test meter. Lipid profile test was obtained by using the iLab analyser. Cholesterol, triglyceride and HDL-cholesterol levels were measured, in plasma (3 μl), using the iLab analyser. LDL-cholesterol levels were obtained using the Friedewald equation=total cholesterol−HDL−(triglycerides/3).
# [1] = once daily 25 nmol/kg bw, 28 days
smiles,measurement,setting,value
CCCCCCCCCCCCCCCC(=O)N[C@@H](CCC(=O)NCCCC[C@H](NC(=O)[C@H](Cc1c[nH]cn1)NC(=O)[C@H](CO)NC(=O)[C@H](CC(C)C)NC(=O)[C@H](CCCNC(=N)N)NC(=O)[C@@H]1CCCN1C(=O)[C@H](CCCNC(=N)N)NC(=O)[C@@H]1CCC(=O)N1)C(=O)NCC(=O)N1CCC[C@H]1C(=O)N[C@@H](CCSC)C(=O)N1CCC[C@H]1C(=O)N[C@@H](Cc1ccccc1)C(N)=O)C(=O)O [pGlu(Lys^8GluPAL)apelin-13-amide],HbA1c levels,after 28 days treatment,significantly reduced
same,Percentage fat mass,"after 28 days, DEXA analysis",30.1%
same,Insulin sensitivity,"after 28 days, insulin 25 U/kg bw",significantly improved
same,Glucose tolerance and plasma insulin excursion in response to an i.p and oral glucose challenge,after the 28 day treatment period,significantly improved
same,HDL-cholesterol levels compared to the lean control and high fat fed mice,once daily,significantly increased
same,Bodyweight reduction,[1],approximately 7%
same,Day of study at which bodyweight was significantly decreased,[1],16 days
same,Day of study at which circulating blood glucose began to be significantly reduced and plasma insulin increased,[1],13 days
same,Day of study at which food intake was significantly reduced,[1],8 days
same,LDL-cholesterol levels compared to the high fat fed controls,"once daily, Friedewald equation",significantly lowered
same,Plasma triglyceride levels,"once daily, high-fat fed mice",significantly lower
same,Total cholesterol levels in plasma,"once daily, high-fat fed mice",significantly lower
